From ChEMBL document CHEMBL3991601, “The target landscape of clinical kinase drugs” (Science, 2017)
pKd: −log10 of the molar value. The source made the active and inactive calls.

Tests used:
[1] = molecular target: T1, Glycogen phosphorylase, liver form (Homo sapiens, UniProt P06737); type: subcellular, K-562, COLO 205, SK-N-BE(2) and MV-4-11, Cell lysate; conditions: read-out: Kd apparent
T1 sequence (P06737 whole entry): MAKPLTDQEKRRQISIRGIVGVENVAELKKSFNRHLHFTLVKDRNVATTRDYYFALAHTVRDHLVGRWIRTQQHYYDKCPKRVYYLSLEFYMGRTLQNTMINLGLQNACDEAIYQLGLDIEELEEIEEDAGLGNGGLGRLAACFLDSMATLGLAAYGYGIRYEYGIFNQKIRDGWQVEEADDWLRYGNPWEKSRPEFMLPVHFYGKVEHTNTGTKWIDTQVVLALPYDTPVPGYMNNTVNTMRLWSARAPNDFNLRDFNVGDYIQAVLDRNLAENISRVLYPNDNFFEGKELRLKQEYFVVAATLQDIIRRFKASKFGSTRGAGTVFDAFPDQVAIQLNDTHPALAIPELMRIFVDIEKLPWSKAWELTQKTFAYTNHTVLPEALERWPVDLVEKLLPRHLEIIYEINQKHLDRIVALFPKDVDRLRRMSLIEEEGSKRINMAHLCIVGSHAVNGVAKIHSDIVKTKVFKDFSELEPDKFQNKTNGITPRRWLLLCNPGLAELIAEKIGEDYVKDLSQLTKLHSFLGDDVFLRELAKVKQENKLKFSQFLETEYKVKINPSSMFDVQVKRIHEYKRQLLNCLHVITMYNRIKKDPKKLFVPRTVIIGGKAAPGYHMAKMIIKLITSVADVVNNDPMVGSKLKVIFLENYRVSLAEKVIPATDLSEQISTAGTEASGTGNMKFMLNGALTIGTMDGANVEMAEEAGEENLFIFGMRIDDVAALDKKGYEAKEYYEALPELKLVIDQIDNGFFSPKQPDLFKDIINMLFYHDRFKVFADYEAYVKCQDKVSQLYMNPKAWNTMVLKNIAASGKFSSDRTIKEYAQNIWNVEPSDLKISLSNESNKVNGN

[2] = molecular target: T2, Mitogen-activated protein kinase kinase kinase kinase 2 (Homo sapiens, UniProt Q12851)
T2 sequence (Q12851 whole entry): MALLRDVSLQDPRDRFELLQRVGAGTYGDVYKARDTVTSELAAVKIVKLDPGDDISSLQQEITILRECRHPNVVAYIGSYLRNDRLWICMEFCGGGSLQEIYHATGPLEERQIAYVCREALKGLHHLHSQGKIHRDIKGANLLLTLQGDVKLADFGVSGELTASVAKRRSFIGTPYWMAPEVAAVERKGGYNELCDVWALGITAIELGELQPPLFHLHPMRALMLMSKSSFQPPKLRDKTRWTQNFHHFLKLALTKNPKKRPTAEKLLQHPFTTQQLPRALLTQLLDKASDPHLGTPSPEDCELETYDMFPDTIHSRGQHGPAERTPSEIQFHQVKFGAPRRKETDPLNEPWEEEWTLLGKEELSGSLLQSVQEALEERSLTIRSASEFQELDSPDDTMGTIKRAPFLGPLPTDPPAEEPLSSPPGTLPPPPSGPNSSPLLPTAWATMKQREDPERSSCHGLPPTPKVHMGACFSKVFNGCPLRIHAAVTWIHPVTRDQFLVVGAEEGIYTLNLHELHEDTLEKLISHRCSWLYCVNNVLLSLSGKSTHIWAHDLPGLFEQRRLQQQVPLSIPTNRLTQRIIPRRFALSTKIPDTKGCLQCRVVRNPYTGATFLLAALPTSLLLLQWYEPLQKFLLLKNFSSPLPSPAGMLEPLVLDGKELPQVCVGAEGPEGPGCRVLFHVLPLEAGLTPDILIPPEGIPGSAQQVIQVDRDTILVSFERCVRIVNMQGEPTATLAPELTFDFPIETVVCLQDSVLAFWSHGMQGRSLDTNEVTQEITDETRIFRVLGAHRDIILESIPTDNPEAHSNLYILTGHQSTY

Septin-9 = molecular target: T3, Septin-9 (Homo sapiens, UniProt Q9UHD8)
T3 sequence (Q9UHD8 whole entry): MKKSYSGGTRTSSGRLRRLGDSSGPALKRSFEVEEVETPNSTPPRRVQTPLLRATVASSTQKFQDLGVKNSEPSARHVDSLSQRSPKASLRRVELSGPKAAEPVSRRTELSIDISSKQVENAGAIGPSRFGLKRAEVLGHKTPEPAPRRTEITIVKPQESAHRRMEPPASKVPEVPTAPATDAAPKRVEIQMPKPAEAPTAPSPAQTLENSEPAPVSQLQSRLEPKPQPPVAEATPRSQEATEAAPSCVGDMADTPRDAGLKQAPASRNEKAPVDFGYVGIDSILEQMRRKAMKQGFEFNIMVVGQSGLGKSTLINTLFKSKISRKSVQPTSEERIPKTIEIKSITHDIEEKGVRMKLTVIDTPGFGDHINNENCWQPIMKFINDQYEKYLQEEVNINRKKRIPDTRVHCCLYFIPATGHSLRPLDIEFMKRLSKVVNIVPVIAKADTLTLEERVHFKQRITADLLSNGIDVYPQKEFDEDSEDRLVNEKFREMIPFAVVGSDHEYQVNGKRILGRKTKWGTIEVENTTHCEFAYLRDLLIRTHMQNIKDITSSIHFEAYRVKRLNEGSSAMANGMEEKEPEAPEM

DNA topoisomerase 2-beta = DNA topoisomerase 2-beta (Homo sapiens, UniProt Q02880)
Sequence of DNA topoisomerase 2-beta (Q02880 whole entry): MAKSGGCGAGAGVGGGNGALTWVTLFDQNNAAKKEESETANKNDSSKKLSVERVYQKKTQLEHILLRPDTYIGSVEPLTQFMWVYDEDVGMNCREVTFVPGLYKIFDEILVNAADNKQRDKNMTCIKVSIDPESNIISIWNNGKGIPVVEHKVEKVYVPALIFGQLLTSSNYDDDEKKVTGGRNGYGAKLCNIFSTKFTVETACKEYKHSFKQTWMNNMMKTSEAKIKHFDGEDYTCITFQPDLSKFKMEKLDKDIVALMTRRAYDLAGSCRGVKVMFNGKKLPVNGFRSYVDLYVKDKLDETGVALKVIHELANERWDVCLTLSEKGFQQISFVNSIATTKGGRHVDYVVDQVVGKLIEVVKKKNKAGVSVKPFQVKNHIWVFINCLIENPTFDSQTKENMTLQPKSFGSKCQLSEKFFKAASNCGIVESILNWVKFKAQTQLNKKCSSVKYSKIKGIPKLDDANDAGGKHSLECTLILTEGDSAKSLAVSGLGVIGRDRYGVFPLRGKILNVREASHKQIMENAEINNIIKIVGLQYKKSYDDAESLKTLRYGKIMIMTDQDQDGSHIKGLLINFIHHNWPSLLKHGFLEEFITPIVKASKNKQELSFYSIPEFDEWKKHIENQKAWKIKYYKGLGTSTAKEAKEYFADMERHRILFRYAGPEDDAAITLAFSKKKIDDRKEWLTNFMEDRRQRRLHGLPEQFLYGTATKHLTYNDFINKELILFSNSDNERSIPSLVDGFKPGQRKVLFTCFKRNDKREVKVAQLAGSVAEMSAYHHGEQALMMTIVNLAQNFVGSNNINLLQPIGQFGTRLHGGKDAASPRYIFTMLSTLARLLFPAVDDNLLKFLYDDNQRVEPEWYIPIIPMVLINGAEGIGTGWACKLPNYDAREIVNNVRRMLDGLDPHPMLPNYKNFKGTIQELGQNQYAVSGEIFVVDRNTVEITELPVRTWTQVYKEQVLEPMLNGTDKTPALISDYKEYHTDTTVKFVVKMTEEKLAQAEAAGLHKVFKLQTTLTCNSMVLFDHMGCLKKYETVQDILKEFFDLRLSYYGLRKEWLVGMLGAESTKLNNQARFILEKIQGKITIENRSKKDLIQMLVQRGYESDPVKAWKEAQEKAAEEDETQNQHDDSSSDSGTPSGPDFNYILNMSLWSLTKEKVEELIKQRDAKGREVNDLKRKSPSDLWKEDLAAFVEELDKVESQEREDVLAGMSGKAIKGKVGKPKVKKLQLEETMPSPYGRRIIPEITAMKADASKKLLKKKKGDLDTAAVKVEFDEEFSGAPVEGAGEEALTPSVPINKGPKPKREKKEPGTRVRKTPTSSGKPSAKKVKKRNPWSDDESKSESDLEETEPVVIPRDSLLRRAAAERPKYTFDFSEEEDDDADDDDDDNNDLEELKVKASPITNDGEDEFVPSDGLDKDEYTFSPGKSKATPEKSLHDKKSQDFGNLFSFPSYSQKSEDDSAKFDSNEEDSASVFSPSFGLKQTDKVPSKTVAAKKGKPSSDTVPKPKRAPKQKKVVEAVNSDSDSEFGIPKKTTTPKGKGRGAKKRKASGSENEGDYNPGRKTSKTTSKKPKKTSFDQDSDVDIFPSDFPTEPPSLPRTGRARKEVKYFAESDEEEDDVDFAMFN
Further: in the data inactive means no Kd found up to 30 µM.

Compound	Kd [1]	Kd (Septin-9)	Kd (DNA topoisomerase 2-beta)	pKd (Septin-9)	Kd [2]
Cc1c(NC(=O)OC[C@@H]2COCCN2)cn2ncnc(Nc3ccc4c(cnn4Cc4cccc(F)c4)c3)c12 [AC-480]	> 30 µM (inactive)	> 30 µM (inactive)	> 30 µM (inactive)	–	> 30 µM (inactive)
Cn1cc(-c2[nH]c3cc(NC(=O)[C@H](N)C4CCCCC4)cc4c3c2C=NNC4=O)cn1	> 30 µM (inactive)	> 30 µM (inactive)	> 30 µM (inactive)	–	> 30 µM (inactive)
CN(c1ncccc1CNc1nc(Nc2ccc3c(c2)CC(=O)N3)ncc1C(F)(F)F)S(C)(=O)=O [PF-00562271]	> 30 µM (inactive)	> 30 µM (inactive)	> 30 µM (inactive)	–	–
C[C@]1(O)C[C@@H](c2nc(-c3ccc4ccc(-c5ccccc5)nc4c3)c3c(N)nccn32)C1 [LINSITINIB]	> 30 µM (inactive)	> 30 µM (inactive)	> 30 µM (inactive)	–	0.067 µM (active)
COc1cc2ncnc(Nc3ccc(O)cc3)c2cc1OC [WHI-P131]	> 30 µM (inactive)	> 30 µM (inactive)	> 30 µM (inactive)	–	> 30 µM (inactive)
NC[C@@](O)(c1ccc(Cl)cc1)c1ccc(-c2cn[nH]c2)cc1 [AT-13148]	> 30 µM (inactive)	> 30 µM (inactive)	> 30 µM (inactive)	–	> 30 µM (inactive)
CNC(=O)c1cc(COc2nnc(Nc3ccc(Cl)cc3)c3ccoc23)ccn1 [TELATINIB]	> 30 µM (inactive)	> 30 µM (inactive)	> 30 µM (inactive)	–	> 30 µM (inactive)
Cn1c(=O)n(-c2ccc(C(C)(C)C#N)cc2)c2c3cc(-c4cnc5ccccc5c4)ccc3ncc21 [DACTOLISIB]	> 30 µM (inactive)	> 30 µM (inactive)	> 30 µM (inactive)	–	–
COc1cc(F)c(F)c(Nc2ccc(I)cc2F)c1NS(=O)(=O)C1(C[C@H](O)CO)CC1 [REFAMETINIB]	> 30 µM (inactive)	> 30 µM (inactive)	> 30 µM (inactive)	–	> 30 µM (inactive)
COc1cc2c(Oc3ccc4[nH]c(C)cc4c3F)ncnc2cc1OCCCN1CCCC1 [CEDIRANIB]	> 30 µM (inactive)	> 30 µM (inactive)	> 30 µM (inactive)	–	–
CN1CCN(c2nc(C3=C(c4c[nH]c5ccccc45)C(=O)NC3=O)c3ccccc3n2)CC1 [SOTRASTAURIN]	> 30 µM (inactive)	> 30 µM (inactive)	> 30 µM (inactive)	–	> 30 µM (inactive)
CC(C)CC(=O)Nc1[nH]nc2c1CN(C(=O)C1CCN(C)CC1)C2(C)C [PHA-793887]	> 30 µM (inactive)	> 30 µM (inactive)	> 30 µM (inactive)	–	> 30 µM (inactive)
CC1(COc2ccc3c(c2)ncn3-c2ccc3cccc(N4CCC(N)CC4)c3n2)COC1 [CRENOLANIB]	> 30 µM (inactive)	> 30 µM (inactive)	> 30 µM (inactive)	–	> 30 µM (inactive)
O[C@H]1CC[C@H](Nc2ncc3nc(Nc4c(F)cc(F)cc4F)n([C@H]4CCOC4)c3n2)CC1 [TANZISERTIB]	> 30 µM (inactive)	> 30 µM (inactive)	> 30 µM (inactive)	–	> 30 µM (inactive)
C=CCn1c(=O)c2cnc(Nc3ccc(N4CCN(C)CC4)cc3)nc2n1-c1cccc(C(C)(C)O)n1 [ADAVOSERTIB]	> 30 µM (inactive)	> 30 µM (inactive)	> 30 µM (inactive)	–	–
CNC(=O)c1ccc(Nc2ncc(C(F)(F)F)c(NCc3nccnc3N(C)S(C)(=O)=O)n2)cc1 [DEFACTINIB]	> 30 µM (inactive)	> 30 µM (inactive)	> 30 µM (inactive)	–	> 30 µM (inactive)
COc1cc2c(N3CCN(C(=O)Nc4ccc(OC(C)C)cc4)CC3)ncnc2cc1OCCCN1CCCCC1 [TANDUTINIB]	> 30 µM (inactive)	–	> 30 µM (inactive)	8.00	–
CN(C)C/C=C/C(=O)Nc1cc2c(Nc3ccc(F)c(Cl)c3)ncnc2cc1O[C@H]1CCOC1 [AFATINIB]	> 30 µM (inactive)	> 30 µM (inactive)	> 30 µM (inactive)	–	–
CCc1nc(C(N)=O)c(Nc2ccc(N3CCC(N4CCN(C)CC4)CC3)c(OC)c2)nc1NC1CCOCC1 [GILTERITINIB]	> 30 µM (inactive)	> 30 µM (inactive)	> 30 µM (inactive)	–	0.244 µM (active)
Cc1cc(-c2cc(OC(=O)c3ccccc3)ccc2Cl)cc2nnc(Nc3ccc(OCCN4CCCC4)cc3)nc12 [TG100-801]	> 30 µM (inactive)	> 30 µM (inactive)	> 30 µM (inactive)	–	> 30 µM (inactive)
CCN1CCN(Cc2ccc(Nc3ncc(F)c(-c4cc(F)c5nc(C)n(C(C)C)c5c4)n3)nc2)CC1 [ABEMACICLIB]	> 30 µM (inactive)	> 30 µM (inactive)	> 30 µM (inactive)	–	> 30 µM (inactive)
FC(F)(F)c1ccc(CNc2ccc(Cc3c[nH]c4ncc(Cl)cc34)cn2)cn1 [PEXIDARTINIB]	> 30 µM (inactive)	> 30 µM (inactive)	> 30 µM (inactive)	–	> 30 µM (inactive)
Cn1cnc2c(F)c(Nc3ccc(Br)cc3Cl)c(C(=O)NOCCO)cc21 [SELUMETINIB]	> 30 µM (inactive)	> 30 µM (inactive)	> 30 µM (inactive)	–	–
CC1(C)CNc2cc(NC(=O)c3cccnc3NCc3ccncc3)ccc21 [MOTESANIB]	> 30 µM (inactive)	> 30 µM (inactive)	> 30 µM (inactive)	–	–
O=S(=O)(c1cccc2cnccc12)N1CCCNCC1 [FASUDIL]	> 30 µM (inactive)	> 30 µM (inactive)	> 30 µM (inactive)	–	–
CCN(CCCOc1ccc2c(Nc3cc(CC(=O)Nc4cccc(F)c4)n[nH]3)ncnc2c1)CCOP(=O)(O)O [BARASERTIB]	> 30 µM (inactive)	> 30 µM (inactive)	> 30 µM (inactive)	–	–

Now from value to molecule, other results behind:

Kd [1]	Kd (Septin-9)	Kd (DNA topoisomerase 2-beta)	pKd (Septin-9)	Compound	Kd [2]
> 30 µM (inactive)	> 30 µM (inactive)	> 30 µM (inactive)	–	NC(=O)c1ccc(N(C(N)=O)c2c(F)cccc2F)nc1-c1ccc(F)cc1F [VX-702]	> 30 µM (inactive)
> 30 µM (inactive)	> 30 µM (inactive)	> 30 µM (inactive)	–	Cc1cc(Nc2nc(N[C@@H](C)c3ncc(F)cn3)ncc2Cl)n[nH]1 [AZD-1480]	> 30 µM (inactive)
> 30 µM (inactive)	> 30 µM (inactive)	> 30 µM (inactive)	–	COc1cccc(Nc2ncnn3ccc(CN4CC[C@@H](N)[C@H](O)C4)c23)c1 [BMS-690514]	> 30 µM (inactive)
> 30 µM (inactive)	> 30 µM (inactive)	> 30 µM (inactive)	–	C[C@@]1(C(=O)Nc2ccc(F)nc2)CCCN1c1nc(Nc2cc(C3CC3)n[nH]2)c2cccn2n1 [BMS-754807]	–
> 30 µM (inactive)	> 30 µM (inactive)	> 30 µM (inactive)	–	CCOc1ccn(-c2ccc(F)cc2)c(=O)c1C(=O)Nc1ccc(Oc2ccnc(N)c2Cl)c(F)c1 [BMS-777607]	–
